One assay addresses Carbonic anhydrase 9 (Homo sapiens, UniProt Q16790). Kind of assay: Inhibition of recombinant human carbonic anhydrase 9 by stopped-flow CO2 hydration assay.
Assay [1] has as its system Mus musculus. Kind of assay: Anticonvulsant activity in Swiss Albino mouse assessed as protection against seizure at 30 mg/kg, ip measured after 0.5 hrs by sc-PTZ seizure test relative to control. The assay is classed as functional.
For assay [2], the system named is Mus musculus. The assay is described as follows: Anticonvulsant activity in Swiss Albino mouse assessed as protection against seizure at 30 mg/kg, ip measured after 3 hrs by sc-PTZ seizure test relative to control. It is filed as functional.
Assay [3] has as its system Mus musculus. The assay is described as follows: Anticonvulsant activity in Swiss Albino mouse model of maximal electroshock-induced seizure assessed as protection against seizure by measuring suppression of hind limb extension at 30 mg/kg, ip pretreated for 30 mins before seizure stimulation and measured after 0.5 hrs by MES test relative to control. It is filed as functional. To be noted: time 60 min, 1 h. (In general: Protection in the maximal electroshock model is a classic sign of anticonvulsant action.)

The test system of assay [4] is Mus musculus. Kind of assay: Anticonvulsant activity in Swiss Albino mouse assessed as protection against seizure at 100 mg/kg, ip measured after 0.5 hrs by sc-PTZ seizure test relative to control. The assay is classed as functional.
For assay [5], the system named is Mus musculus. Kind of assay: Anticonvulsant activity in Swiss Albino mouse model of maximal electroshock-induced seizure assessed as protection against seizure by measuring suppression of hind limb extension at 100 mg/kg, ip pretreated for 30 mins before seizure stimulation and measured after 3 hrs by MES test relative to control. It is filed as functional. To be noted: 0.5 h.

Assay [6] deals with Mus musculus. The assay is described as follows: Anticonvulsant activity in Swiss Albino mouse model of maximal electroshock-induced seizure assessed as protection against seizure by measuring suppression of hind limb extension at 100 mg/kg, ip pretreated for 30 mins before seizure stimulation and measured after 0.5 hrs by MES test relative to control. It is filed as functional. To be noted: time 60 min, 1 h.

Assay [7] has as its system Mus musculus. The assay is described as follows: Anticonvulsant activity in Swiss Albino mouse assessed as protection against seizure at 100 mg/kg, ip measured after 3 hrs by sc-PTZ seizure test relative to control. It is filed as functional.
For assay [8], the system named is Mus musculus. Kind of assay: Anticonvulsant activity in Swiss Albino mouse model of maximal electroshock-induced seizure assessed as protection against seizure by measuring suppression of hind limb extension at 30 mg/kg, ip pretreated for 30 mins before seizure stimulation and measured after 3 hrs by MES test relative to control. The assay is classed as functional. As to conditions: time 3.5 hrs.

The term Ki denotes the dissociation constant of the complex between target and ligand, obtained from inhibition or displacement.

With `COc1ccc(N2CCN(CC(=O)NCc3ccc(S(N)(=O)=O)cc3)CC2)cc1`, at Carbonic anhydrase 9, the inhibition constant Ki turned out to be 1.1 µM.

For `NS(=O)(=O)c1ccc(CNC(=O)CCN2CCN(c3ccccn3)CC2)cc1`, the inhibitory constant (Ki) at Carbonic anhydrase 9 worked out at 0.162 µM. The same measure, in the same setting: to `NS(=O)(=O)c1ccc(CNC(=O)CCN2CCN(c3ccc(F)cc3)CC2)cc1` belongs 0.115 µM. As to `NS(=O)(=O)c1ccc(CNC(=O)CN2CCN(C(c3ccccc3)c3ccccc3)CC2)cc1`, the Ki on Carbonic anhydrase 9 is 1.68 µM. As to `NS(=O)(=O)c1ccc(CNC(=O)CN2CCN(c3ncccn3)CC2)cc1`, the Activity was found to be 33% with Mus musculus [1]; 50% in the assay on Mus musculus [2]; 50% in the assay on Mus musculus [3]; 50% in the assay with Mus musculus [4]; 83% in the assay on Mus musculus [5]; 50% with Mus musculus [6]. Also, the Activity is given as 50% in the assay with Mus musculus [7] and 67% in the assay with Mus musculus [8]. The inhibition constant Ki on Carbonic anhydrase 9 was 2.23 µM.

`NS(=O)(=O)c1ccc(CNC(=O)CCN2CCN(C(=O)OCc3ccccc3)CC2)cc1`: the Ki on Carbonic anhydrase 9 was 0.257 µM. For the compound `NS(=O)(=O)c1ccc(CNC(=O)CCN2CCN(Cc3ccccc3)CC2)cc1`, the Ki on Carbonic anhydrase 9 was found to be 0.116 µM. Regarding `NS(=O)(=O)c1ccc(CNC(=O)CN2CCN(c3ccc(Cl)cc3)CC2)cc1`, the Ki on Carbonic anhydrase 9 was found to be 1.2 µM. As for `NS(=O)(=O)c1ccc(CNC(=O)CN2CCN(C(=O)OCc3ccccc3)CC2)cc1`, the Activity in the assay on Mus musculus [1] is listed as 67%; in the assay on Mus musculus [2], 17%; in the assay on Mus musculus [3], 17%; in the assay with Mus musculus [4], 50%; with Mus musculus [5], 50%; in the assay on Mus musculus [6] it was 67%. Further, the figures for the Activity in the assay on Mus musculus [7] and with Mus musculus [8] were 33% and 67%, respectively. Moreover, at Carbonic anhydrase 9, the inhibition constant Ki was determined as 1.63 µM. Consider `NS(=O)(=O)c1ccc(CNC(=O)CN2CCN(c3ccc(C(F)(F)F)cc3)CC2)cc1`, for which the inhibition constant Ki at Carbonic anhydrase 9 came to 1.77 µM. In the case of `COc1ccc(N2CCN(CCC(=O)NCc3ccc(S(N)(=O)=O)cc3)CC2)cc1`, the Ki on Carbonic anhydrase 9 is 0.136 µM. Same read-out and setting: next, `NS(=O)(=O)c1ccc(CNC(=O)CN2CCN(C(c3ccc(F)cc3)c3ccc(F)cc3)CC2)cc1`: 2.44 µM; `NS(=O)(=O)c1ccc(CNC(=O)CN2CCN(c3ccc(F)cc3)CC2)cc1`: 0.228 µM; `NS(=O)(=O)c1ccc(CNC(=O)CCN2CCN(c3ccc(Cl)cc3)CC2)cc1`: 0.117 µM.

As for `NS(=O)(=O)c1ccc(CNC(=O)CCN2CCN(c3ccccc3)CC2)cc1`, the inhibitory constant (Ki) on Carbonic anhydrase 9 turned out to be 0.0237 µM. Same read-out and setting: next, `NS(=O)(=O)c1ccc(CNC(=O)CN2CCN(c3ccccc3)CC2)cc1`: 0.396 µM; `Cc1ccc(N2CCN(CC(=O)NCc3ccc(S(N)(=O)=O)cc3)CC2)cc1`: 1.53 µM.

Take `NS(=O)(=O)c1ccc(CNC(=O)CCN2CCN(C(c3ccc(F)cc3)c3ccc(F)cc3)CC2)cc1`: the inhibition constant (Ki) at Carbonic anhydrase 9 is 0.098 µM. In the case of `Cc1ccc(N2CCN(CCC(=O)NCc3ccc(S(N)(=O)=O)cc3)CC2)cc1`, the Ki on Carbonic anhydrase 9 worked out at 0.0789 µM. Same read-out and setting: to `NS(=O)(=O)c1ccc(CNC(=O)CCN2CCN(c3ccc(C(F)(F)F)cc3)CC2)cc1` belongs 0.137 µM. Take `NS(=O)(=O)c1ccc(CNC(=O)CCN2CCN(C(c3ccccc3)c3ccccc3)CC2)cc1`: on Carbonic anhydrase 9, the inhibition constant Ki came out at 0.89 µM. As for `NS(=O)(=O)c1ccc(CNC(=O)CN2CCN(Cc3ccccc3)CC2)cc1`, at Carbonic anhydrase 9, the Ki is 0.22 µM. On the same count and under the same terms, next, `NS(=O)(=O)c1ccc(CNC(=O)CN2CCN(Cc3ccc4c(c3)OCO4)CC2)cc1`: 1.6 µM; `NS(=O)(=O)c1ccc(CNC(=O)CCN2CCN(c3ncccn3)CC2)cc1`: 0.455 µM; `NS(=O)(=O)c1ccc(CNC(=O)CN2CCN(c3ccccn3)CC2)cc1`: 1.56 µM.

(Values after ChEMBL document CHEMBL4680105, “Discovery of Benzenesulfonamide Derivatives as Carbonic Anhydrase Inhibitors with Effective Anticonvulsant Action: Design, Synthesis, and Pharmacological Evaluation” (J Med Chem, 2018).)
